In patent US6908919B2, “Substituted polycyclic aryl and heteroaryl pyrazinones useful for selective inhibition of the coagulation cascade” (Pharmacia Corporation, priority 1999, dated 2005):

Experiments:
Human factor Xa = Human factor Xa (Homo sapiens, UniProt P00742); assay: Xa Assay; type: biochemical; design: purchased Enzyme Research Laboratories, South Bend Ind; details: for % Inhibition Factor Xa (30 µM): at 30 µM inhibitor
Human thrombin = Human thrombin (Homo sapiens, UniProt P00734)
[1] = target: T1, recombinant soluble tissue factor and recombinant human factor VIIa (TF-VIIa) (Homo sapiens, UniProt P08709); assay: TF-VIIa Assay; type: biochemical; details: for IC50: read-out: IC50 TF-VIIa; for inhibition at 30 µM: 1 h, at 30 µM inhibitor
T1 construct: conversion of coagulation factor VII to VIIa by Xa; purchased American Diagnostica, Greenwich Conn; host or cells: VIIa purchased; soluble TF made in house in E. coli
T1 sequence (P08709 61-212 limits assumed): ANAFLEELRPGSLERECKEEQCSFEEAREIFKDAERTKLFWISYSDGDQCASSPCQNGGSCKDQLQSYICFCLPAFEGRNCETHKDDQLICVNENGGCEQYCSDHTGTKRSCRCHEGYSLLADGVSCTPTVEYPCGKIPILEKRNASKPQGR
T1 sequence (P08709 213-466 limits assumed): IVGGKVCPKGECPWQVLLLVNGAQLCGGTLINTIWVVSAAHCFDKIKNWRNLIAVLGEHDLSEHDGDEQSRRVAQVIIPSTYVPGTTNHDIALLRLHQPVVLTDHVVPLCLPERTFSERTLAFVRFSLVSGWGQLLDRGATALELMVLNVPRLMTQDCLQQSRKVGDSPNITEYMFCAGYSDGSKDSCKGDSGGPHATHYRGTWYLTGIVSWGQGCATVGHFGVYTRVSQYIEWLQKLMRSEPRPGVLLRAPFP
T1 sequence (P13726 33-251 partner limits assumed): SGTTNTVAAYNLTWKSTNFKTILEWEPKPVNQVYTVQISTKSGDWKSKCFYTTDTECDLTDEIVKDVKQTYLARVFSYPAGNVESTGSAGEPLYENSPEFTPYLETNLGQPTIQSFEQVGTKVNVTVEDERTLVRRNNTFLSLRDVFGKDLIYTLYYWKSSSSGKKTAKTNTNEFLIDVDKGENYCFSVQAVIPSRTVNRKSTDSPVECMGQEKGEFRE

Chain of Human factor Xa (P00742 41-179 limits assumed): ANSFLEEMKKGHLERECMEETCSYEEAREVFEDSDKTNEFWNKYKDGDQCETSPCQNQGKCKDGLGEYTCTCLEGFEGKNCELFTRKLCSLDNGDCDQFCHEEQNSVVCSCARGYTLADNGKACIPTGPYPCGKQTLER
Chain of Human factor Xa (P00742 235-488 limits assumed): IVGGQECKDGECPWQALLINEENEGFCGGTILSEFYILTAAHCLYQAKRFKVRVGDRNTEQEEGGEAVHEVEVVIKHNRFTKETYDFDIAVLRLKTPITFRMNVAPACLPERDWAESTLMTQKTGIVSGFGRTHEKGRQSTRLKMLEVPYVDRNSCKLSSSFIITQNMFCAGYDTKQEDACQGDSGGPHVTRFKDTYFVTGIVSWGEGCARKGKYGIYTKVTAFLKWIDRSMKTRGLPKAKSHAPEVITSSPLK

| Structure (SMILES) | % Inhibition Factor Xa (30 µM) (Human factor Xa) | % Inhibition Thrombin II (30 µM) (Human thrombin) | IC50 [1] | IC50 (Human factor Xa) | inhibition at 30 µM [1] |
| --- | --- | --- | --- | --- | --- |
| N=C(NC(=O)OCc1ccccc1)c1ccc(CNC(=O)Cn2c(-c3cccc(N)c3)c(Cl)nc(NC3CCC3)c2=O)cc1 [Example 151] | 17% | 29% | 230 nM |  |  |
| Nc1ccc(CNC(=O)Cn2c(-c3cccc(N)c3)c(Cl)nc(NC3CCC3)c2=O)cc1 [Example 158] |  | 6% |  | > 30000 nM | 10% |
| COC(=O)c1cc(N)cc(-c2cnc(NC3CCC3)c(=O)n2CC(=O)NCc2ccc(C(=N)N)cc2)c1 [Example 117] | 18% | 21% | 33 nM |  |  |
| CC(C)Nc1nc(Cl)c(-c2cc(N)ccc2SCC(=O)O)n(CC(=O)NCc2ccc(C(=N)N)cc2)c1=O [Example 110] | 15% | 20% | 50 nM |  |  |
| CC(C)Nc1nc(Cl)c(-c2cccc(N)c2)n(CC(=O)NCc2ccc(C(N)=S)cc2)c1=O [Example 156] | 7% | 5% |  |  | 27% |
| CN(C)CC/N=C(\NCCN(C)C)c1ccc(CNC(=O)Cn2c(-c3cccc(N)c3)c(Cl)nc(NC3CCC3)c2=O)cc1 [Example 165] | 4% | 5% | 63000 nM |  |  |
| COCC/N=C(\NCCOC)c1ccc(CNC(=O)Cn2c(-c3cccc(N)c3)c(Cl)nc(NC3CCC3)c2=O)cc1 [Example 164] | 2% | 5% |  |  | 24% |
| N=C(N)c1ccc(CNC(=O)Cn2c(-c3ccccc3N)cnc(NC3CCC3)c2=O)cc1 [Example 116] | 12% | 27% | 1200 nM |  |  |
| N=C(NCc1ccccc1)c1ccc(CNC(=O)Cn2c(-c3cccc(N)c3)c(Cl)nc(NC3CCC3)c2=O)cc1 [Example 160] | 7% | 9% | 18000 nM |  |  |
| N=C(N)c1ccc(CNC(=O)Cn2c(-c3cc(N)cc(N)c3)cnc(NC3CCC3)c2=O)cc1 [Example 119] | 26% | 45% | 10 nM |  |  |
| CC(C)Nc1nc(Cl)c(-c2cccc(N)c2)n(CC(=O)Nc2ccc(S(=O)(=O)NC(=N)N)cc2)c1=O [Example 155] | 11% | 2% |  |  | 1% |
| N=C(N)c1ccc(CNC(=O)Cn2c(-c3cc(N)cc(C(=O)O)c3)cnc(NC3CCC3)c2=O)cc1 [Example 118] |  | 3% | 52 nM | 52300 nM |  |
